Results as given in patent publication US20250289789A1, “REVERSIBLE LYSINE COVALENT MODIFIERS OF CDK2 AND USES THEREOF” (Terremoto Biosciences, Inc., priority 2023, published 2025).
Where two headings read alike, the source gives them in different places.

Legend:
Assay type in all cases: cell-based
[1] = target: T1, CDK2-NanoLuc fusion with CCNE1 in 293T or 293 cells (Homo sapiens, UniProt P24941); assay: NanoBRET Target Engagement (TE) Intracellular Kinase Assay, CDK2/CCNE1; conditions: 2-hour incubation
T1 construct: host or cells: 293T (ATCC CRL-3216) or 293 (ATCC CRL-1573)

[2] = target: T2, CDK1-NanoLuc fusion with CCNB1 in 293T or 293 cells (Homo sapiens, UniProt P06493); assay: NanoBRET Target Engagement (TE) Intracellular Kinase Assay, CDK1/CCNB1; conditions: 2-hour incubation
T2 construct: host or cells: 293T (ATCC CRL-3216) or 293 (ATCC CRL-1573)
T2 sequence (P06493 whole entry, the tested form may be a part): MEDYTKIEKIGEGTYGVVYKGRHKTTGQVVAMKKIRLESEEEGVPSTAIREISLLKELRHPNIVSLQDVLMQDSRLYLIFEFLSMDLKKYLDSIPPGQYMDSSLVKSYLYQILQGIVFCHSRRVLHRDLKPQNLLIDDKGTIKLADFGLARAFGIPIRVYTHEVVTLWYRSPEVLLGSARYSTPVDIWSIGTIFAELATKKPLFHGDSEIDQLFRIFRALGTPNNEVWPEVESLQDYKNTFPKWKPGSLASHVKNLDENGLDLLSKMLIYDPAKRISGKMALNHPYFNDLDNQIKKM
T2 sequence (P14635 whole entry partner, the tested form may be a part): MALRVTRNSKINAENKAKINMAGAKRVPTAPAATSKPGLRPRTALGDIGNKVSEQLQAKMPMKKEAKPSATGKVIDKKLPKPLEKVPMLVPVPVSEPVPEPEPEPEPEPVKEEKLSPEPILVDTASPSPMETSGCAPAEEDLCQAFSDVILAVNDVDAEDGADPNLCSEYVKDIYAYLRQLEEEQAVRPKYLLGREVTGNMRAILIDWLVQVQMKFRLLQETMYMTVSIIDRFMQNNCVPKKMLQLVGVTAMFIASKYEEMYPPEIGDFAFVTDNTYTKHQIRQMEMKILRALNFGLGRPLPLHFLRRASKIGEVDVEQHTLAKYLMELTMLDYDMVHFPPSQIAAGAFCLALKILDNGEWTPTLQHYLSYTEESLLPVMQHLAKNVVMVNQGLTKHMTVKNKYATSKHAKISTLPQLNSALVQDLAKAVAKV
Protocol: Inhibitory effects of compounds were measured in NanoBRET TE Intracellular Kinase Assay. 293T (ATCC; CRL-3216) or 293 (ATCC; CRL-1573) cell lines were maintained in 90% DMEM and 10% fetal bovine serum at 37° C., 5% CO2, and 95% relative humidity. Cells were trypsinized and resuspended in assay media (99% Opti-MEM I Reduced Serum Medium, no phenol red, and 1% fetal bovine serum). Cells were co-transfected with 1 μg/mL of CDK-NanoLuc Fusion Vector (Promega; NV2701 for CDK1, NV2781 for CDK2, NV2811 for CDK4, NV2841 for CDK6) and 1 μg/mL of the corresponding Cyclin Expression Vector (Promega; NV2601 for CCNB1, NV2641 for CCNE1, NV2621 for CCND1, NV2631 for CCND3) using FuGENE HD Transfection Reagent (Promega; E2311). 40 uL/well of cells with transfection mixture were seeded in 384-well plates at 1.25×10^5 to 2×10^5 cells/mL and incubated for 24 hours at 37° C., 5% CO2, and 95% relative humidity. On the next day, 100 nL of 100 μM NanoBRET Tracer K-10 (Promega; N2640) and 40 nL of 1000× test compounds prepared in DMSO were added to the cells in each well of 384-well plates for a 2-hour incubation at 37° C., 5% CO2, and 95% relative humidity. 20 uL/well of 3× Intracellular TE Nano-Glo Substrate/Inhibitor (Promega; N2162) were added to 384-well plates and incubated for 3 minutes at room temperature. NanoBRET signals (donor emission wavelength at 450 nm, acceptor emission wavelength at 610 nm) were measured using Envision plate reader (PerkinElmer). NanoBRET ratio was calculated by: BRET Ratio=raw signal for acceptor/raw signal for donor. Dose response curve normalized to DMSO control was plotted using four-parameter logistic model for IC50 calculation.

[3] = target: T3, CDK4-NanoLuc fusion with CCND1 in 293T or 293 cells (Homo sapiens, UniProt P11802); assay: NanoBRET Target Engagement (TE) Intracellular Kinase Assay, CDK4/CCND1; conditions: 2-hour incubation
T3 construct: host or cells: 293T (ATCC CRL-3216) or 293 (ATCC CRL-1573)
T3 sequence (P11802 whole entry, the tested form may be a part): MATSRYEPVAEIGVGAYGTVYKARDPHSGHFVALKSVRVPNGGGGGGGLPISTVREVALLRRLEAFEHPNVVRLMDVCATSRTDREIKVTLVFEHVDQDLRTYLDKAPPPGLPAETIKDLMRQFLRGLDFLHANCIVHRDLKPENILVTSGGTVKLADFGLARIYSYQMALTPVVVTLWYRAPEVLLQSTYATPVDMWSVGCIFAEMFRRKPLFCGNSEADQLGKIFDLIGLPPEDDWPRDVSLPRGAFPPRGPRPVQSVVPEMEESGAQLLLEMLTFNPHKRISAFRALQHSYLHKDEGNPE
T3 sequence (P24385 whole entry partner, the tested form may be a part): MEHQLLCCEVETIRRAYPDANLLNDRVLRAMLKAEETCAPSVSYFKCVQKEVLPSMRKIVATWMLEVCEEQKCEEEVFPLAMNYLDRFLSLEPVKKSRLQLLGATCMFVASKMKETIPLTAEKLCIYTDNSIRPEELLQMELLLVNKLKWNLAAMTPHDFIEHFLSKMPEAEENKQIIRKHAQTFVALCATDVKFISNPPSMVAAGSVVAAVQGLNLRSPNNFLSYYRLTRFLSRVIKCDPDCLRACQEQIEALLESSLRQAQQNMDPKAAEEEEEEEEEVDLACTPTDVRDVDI

[4] = test system: Phospho-Rb Ser807/811 in OVCAR3 cells; assay: OVCAR3 Phospho-Rb Ser807/811 HTRF assay; conditions: Homo sapiens, OVCAR3 cells, Phospho-Rb Ser807/811 HTRF, 1 hour incubation, read-out: pRb-OVCAR3 IC50
Protocol: Cells were trypsinized and resuspended in 1 mM hydroxyurea (Sigma; H8627), 90% RPMI and 10% fetal bovine serum. […] Dose response curve normalized to DMSO control was plotted using four-parameter logistic model for IC50 calculation.

[5] = NanoBRET TE intracellular kinase assay, read-out: NanoBRET-CDK2/E1 IC50
[6] = NanoBRET TE intracellular kinase assay, read-out: NanoBRET-CDK1/B1 IC50
[7] = NanoBRET TE intracellular kinase assay, read-out: NanoBRET-CDK4/D1 IC50

SMILES | IC50 [1, 5] | IC50 [2, 6] | IC50 [3, 7] | IC50 ([4]; OVCAR-3, 1 h) | IC50 ([1]; NanoBRET-CDK2/E1 IC50, NanoBRET TE intracellular kinase assay) | IC50 ([2]; NanoBRET-CDK1/B1 IC50, NanoBRET TE intracellular kinase assay) | IC50 ([3]; NanoBRET-CDK4/D1 IC50, NanoBRET TE intracellular kinase assay) | IC50 ([4]; OVCAR-3)
CC(C)NC(=O)O[C@@H]1CC[C@H](c2cc(NC(=O)CSc3cccc(O)c3C=O)n[nH]2)C1 [Compound 96, (1R,3S)-3-(5-{2-[(2-formyl-3-hydroxyphenyl)sulfanyl]acetamido}-2H-pyrazol-3-yl)cyclopentyl N-isopropylcarbamate; trifluoroacetic acid] | 7.13 nM | 129 nM | 1820 nM | 601 nM | – | – | – | –
CC(C)NC(=O)O[C@@H]1CC[C@H](c2cc(NC(=O)c3ccc(O)c(C=O)c3)n[nH]2)C1 [Compound 3, (1R,3S)-3-(3-(3-formyl-4-hydroxybenzamido)-1H-pyrazol-5-yl)cyclopentyl isopropylcarbamate trifluoroacetic acid] | 9.48 nM | 32.8 nM | 255 nM | 129 nM | – | – | – | –
CC(C)NC(=O)O[C@@H]1CC[C@H](c2cc(NC(=O)c3cc(C(=O)Nc4ccccc4C=O)nn3C)n[nH]2)C1 [Compound 21, (1R,3S)-3-(5-{5-[(2-formylphenyl)carbamoyl]-2-methylpyrazole-3-amido}-2H-pyrazol-3-yl)cyclopentyl N-isopropylcarbamate; trifluoroacetic acid] | 5.53 nM | 290 nM | 3900 nM | 2120 nM | – | – | – | –
COc1cc(O)c(C=O)c(OCC(=O)Nc2cc([C@H]3CC[C@@H](OC(=O)N4C5CCC4COC5)C3)[nH]n2)c1 [Compound 207, (1R,3S)-3-{5-[2-(2-formyl-3-hydroxy-5-methoxyphenoxy)acetamido]-2H-pyrazol-3-yl}cyclopentyl 3-oxa-8-azabicyclo[3.2.1]octane-8-carboxylate] | – | – | – | – | 2.25 nM | 6.54 nM | 4130 nM | 25.7 nM
CC(C)NC(=O)O[C@@H]1CC[C@H](c2cc(NC(=O)C3Cc4ccc(O)c(C=O)c4O3)n[nH]2)C1 (stereo partly drawn) [Compound 62, (1R,3S)-3-(3-(7-formyl-6-hydroxy-2,3-dihydrobenzo-furan-2-carboxamido)-1H-pyrazol-5-yl)cyclopentyl isopropylcarbamate] | 34.4 nM | 270 nM | 7230 nM | 1870 nM | – | – | – | –
CC(C)NC(=O)O[C@@H]1CC[C@H](c2cc(NC(=O)N3CC=C(c4cccc(O)c4C=O)C3)n[nH]2)C1 [Compound 78, (1R,3S)-3-(3-(3-(2-formyl-3-hydroxyphenyl)-2,5-dihydro-1H-pyrrole-1-carboxamido)-1H-pyrazol-5-yl)cyclopentyl isopropylcarbamate] | 16.7 nM | 142 nM | > 10000 nM | 1190 nM | – | – | – | –
Cc1cc(O)c(C=O)c(OCC(=O)Nc2cc([C@H]3CC[C@@H](OC(=O)NC(C)C)C3)[nH]n2)c1 [Compound 57, (1R,3S)-3-(3-(2-(2-formyl-3-hydroxy-5-methylphenoxy)acetamido)-1H-pyrazol-5-yl)cyclopentyl isopropylcarbamate] | 3.06 nM | 21.9 nM | > 9580 nM | 110 nM | – | – | – | –
CC(C)NC(=O)O[C@@H]1CC[C@H](c2cc(NC(=O)c3cc(C=O)c4[nH]ncc4c3)n[nH]2)C1 [Compound 40, (1R,3S)-3-(3-(7-formyl-1H-indazole-5-carboxamido)-1H-pyrazol-5-yl)cyclopentyl isopropylcarbamate] | 24.4 nM | 275 nM | 1460 nM | 796 nM | – | – | – | –
O=Cc1c(O)cccc1OCC(=O)Nc1cc([C@H]2CC[C@@H](OC(=O)NC3CCCC3)C2)[nH]n1 [Compound 88, (1R,3S)-3-(3-(2-(2-formyl-3-hydroxyphenoxy)acetamido)-1H-pyrazol-5-yl)cyclopentyl cyclopentylcarbamate] | 3.47 nM | 42 nM | > 10000 nM | 227 nM | – | – | – | –
COc1cc(OC)c(C=O)c(OCC(=O)Nc2cc([C@H]3C[C@@H](OC(=O)N4C5COCC4C5)C3)[nH]n2)c1 [Compound 108, (1s,3s)-3-(3-(2-(2-formyl-3,5-dimethoxyphenoxy)acetamido)-1H-pyrazol-5-yl)cyclobutyl 3-oxa-6-azabicyclo[3.1.1]heptane-6-carboxylate] | 3.65 nM | 15.2 nM | > 10000 nM | 44.4 nM | – | – | – | –
CC(C)NC(=O)O[C@@H]1CC[C@H](c2cc(Nc3cc(C#Cc4cccc(O)c4C=O)ccn3)n[nH]2)C1 [Compound 75, (1R,3S)-3-[5-({4-[2-(2-formyl-3-hydroxyphenyl)ethynyl]pyridin-2-yl}amino)-2H-pyrazol-3-yl]cyclopentyl N-isopropylcarbamate; trifluoroacetic acid] | 21.4 nM | 372 nM | 224 nM | 4970 nM | – | – | – | –
CC(C)NC(=O)O[C@@H]1CC[C@H](c2cc(NC(=O)[C@H]3C[C@@H]3c3cccc(O)c3C=O)n[nH]2)C1 (single isomer, unassigned) [Compound 10] | 6.04 nM | 11.3 nM | 1000 nM | 67.6 nM | – | – | – | –

Further lines, with some results ahead:

IC50 [1, 5] | IC50 [2, 6] | IC50 [3, 7] | IC50 ([4]; OVCAR-3, 1 h) | SMILES | IC50 ([1]; NanoBRET-CDK2/E1 IC50, NanoBRET TE intracellular kinase assay) | IC50 ([2]; NanoBRET-CDK1/B1 IC50, NanoBRET TE intracellular kinase assay) | IC50 ([3]; NanoBRET-CDK4/D1 IC50, NanoBRET TE intracellular kinase assay) | IC50 ([4]; OVCAR-3)
8.75 nM | 1140 nM | 9440 nM | 3020 nM | CC(C)NC(=O)O[C@@H]1CC[C@H](c2cc(NC(=O)COc3cccc(Cl)c3C=O)n[nH]2)C1 [Compound 97, (1R,3S)-3-{5-[2-(3-chloro-2-formylphenoxy)acetamido]-2H-pyrazol-3-yl}cyclopentyl N-isopropylcarbamate] | – | – | – | –
12 nM | 1490 nM | > 10000 nM | 3340 nM | CC(C)NC(=O)O[C@@H]1CC[C@H](c2cc(NC(=O)COc3cccc(-c4nccs4)c3C=O)n[nH]2)C1 [Compound 98, (1R,3S)-3-(3-(2-(2-formyl-3-(thiazol-2-yl)phenoxy)acetamido)-1H-pyrazol-5-yl)cyclopentyl isopropylcarbamate] | – | – | – | –
2.24 nM | 10.9 nM | 4270 nM | 32.8 nM | COc1cc(O)c(C=O)c(OCC(=O)Nc2cc([C@H]3CC[C@@H](OC(=O)N4CCCC4)C3)[nH]n2)c1 [Compound 255, (1R,3S)-3-(3-(2-(2-formyl-3-hydroxy-5-methoxyphenoxy)acetamido)-1H-pyrazol-5-yl)cyclopentyl pyrrolidine-1-carboxylate] | – | – | – | –
3.14 nM | 21.4 nM | > 10000 nM | 259 nM | C#Cc1cc(O)c(C=O)c(OCC(=O)Nc2cc([C@H]3CC[C@@H](OC(=O)NC(C)C)C3)[nH]n2)c1 [Compound 99, (1R,3S)-3-(3-(2-(5-ethynyl-2-formyl-3-hydroxyphenoxy)acetamido)-1H-pyrazol-5-yl)cyclopentyl isopropylcarbamate] | – | – | – | –
1.9 nM | 12.8 nM | 4250 nM | 32.2 nM | COc1cc(O)c(C=O)c(OCC(=O)Nc2cc([C@H]3CC[C@@H](OC(=O)N4CC[C@@H]5C[C@@H]54)C3)[nH]n2)c1 [Compound 236] | – | – | – | –
1.89 nM | 2.14 nM | 846 nM | 13.1 nM | COc1cc(O)c(C=O)c(OCC(=O)Nc2cc([C@H]3CC[C@@H](OC(=O)N4CCC4(C)C)C3)[nH]n2)c1 [Compound 239, (1R,3S)-3-(3-(2-(2-formyl-3-hydroxy-5-methoxyphenoxy)acetamido)-1H-pyrazol-5-yl)cyclopentyl 2,2-dimethylazetidine-1-carboxylate] | – | – | – | –
1.95 nM | 4.23 nM | 844 nM | 22.6 nM | COc1cc(O)c(C=O)c(OCC(=O)Nc2cc([C@H]3CC[C@@H](OC(=O)N4C[C@@H]5CC[C@H]4C5)C3)[nH]n2)c1 [Compound 219] | – | – | – | –
